“Also recorded” adds a separate entry of the source.

The subject of data set [1] is adenosinedeaminase (ADA). The following applies: background statement; cited from earlier work.
Data set [2] relates to shingles herpes virus (VZV, Kawaguchi strain). Nature of the data set: Antiviral activity to shingles herpes virus, plaque numbers on HEL cells. The class given is cell-based, varicella-zoster virus. The following applies: incubated one week, FIG. 1 and FIG. 2. The procedure: As a test for efficacy of antiviral activity, antiviral activity to shingles herpes virus was measured. Cell-free aricella-zoster virus (VZV) (Kawaguchi strain) was diluted and the resulting solution was layered on HEL cells of a 100% confluent. The layered product was placed in a CO2 incubator of 37° C., shaken every 15 minutes and infected for one hour. The virus solution was removed by suction, then DMEM containing 5% of FCS and a compound of the present invention, a control compound or Ara-A (positive control) was added thereto and the mixture was incubated for one week. The incubated mixture was fixed by formalin, dyed with Crystal Violet and numbers of plaques were measured. The inhibiting rate to shingles virus was determined from the plaque numbers of the control.

Data set [3] concerns adenosinedeaminase (ADA). Briefly: Stability to ADA, enzymatic reaction followed by decrease in UV absorption at 265 nm. The class given is in vitro ADME. The following applies: 0.1 mM compound, 75 mM phosphate buffer pH 7.5, 25° C., UV 265 nm. On the procedure:
An enzymatic reaction was carried out to test stability of the compounds to ADA. Thus, 200 μL (final concentration: 0.1 mM) of a 1 mM solution of a compound of the present invention, a control compound or Ara-A (control), 1.5 mL of a 0.1 M phosphate buffer (pH 7.5; final concentration: 75 mM) and 300 μL of a 200 units/mL enzyme solution (final concentration: […]) were placed in a UV cell and the decrease in ultraviolet absorption at 265 nm with a lapse of time was measured by an ultraviolet absorption meter. The enzymatic reaction was carried out at 25° C. As the enzymatic reaction proceeded, an ultraviolet absorption at 265 nm decreased and said rate of decrease in ultraviolet absorption was expressed as a relative enzymatic reaction rate.

Consider `Nc1ncnc2c1ncn2[C@@H]1O[C@H](CO)[C@@H](O)[C@@H]1O` [Ara-A, Arabinosyladenine], for which the “metabolism by ADA in the blood stream” value in the data set on adenosinedeaminase (ADA) [1] is “quickly metabolized by adenosinedeaminase (ADA) in the blood stream to hypoxanthine arabinoside”.
Turning to `Cc1nc(N)c2ncn([C@@H]3O[C@H](CO)[C@@H](O)[C@@H]3O)c2n1` [control compound A, 9-(β-D-arabinofuranosyl)-2-methyladenine], the “antiviral activity to shingles virus (inhibiting rate from plaque numbers)” value in data set [2] is given as “no strong antiviral action is obtained; also recorded: a sufficient antiviral action is not achieved”. Moreover, the “resistance (stability) to metabolism by ADA, relative enzymatic reaction rate” value in the data set on adenosinedeaminase (ADA) [3] is on record as “not satisfactory in terms of resistance to ADA; also recorded: did not show a favorable resistance to ADA”.
The like results for `CCc1nc(N)c2ncn([C@@H]3O[C@H](CO)[C@@H](O)[C@@H]3O)c2n1` [control compound B, 9-(β-D-arabinofuranosyl)-2-ethyladenine] were, in that order, “no strong antiviral action is obtained; also recorded: a sufficient antiviral action is not achieved” and “not satisfactory in terms of resistance to ADA; also recorded: did not show a favorable resistance to ADA”.

These data come from patent US6242429A, “Arabinosyladenine derivatives” (priority 1998, dated 2001).
